Consider one molecule from US20080107625A1, “Inhibitors of Hepatitis C Virus” (Bristol-Myers Squibb Company, priority 2006, published 2008).

The molecule `CC(C)(C)OC(=O)N[C@H]1CCCOC/C=C\[C@@H]2C[C@@]2(C(=O)NS(=O)(=O)C2CC2)NC(=O)[C@@H]2C[C@@H](OCc3ccccc3)CN2C1=O` [Compound 5, (1S,4R,6S,14S,18R,7-cis)-18-benzyloxy-14-tert-butoxycarbonylamino-4-cyclopropanesulfonylaminocarbonyl-2,15-dioxo-3,16-diaza-10-oxatricyclo[14.3.0.04,6]nonadec-7-ene] displayed a melting point of 147 to 149 °C.
